Experimental data: patent US20140243351A1, “DRUG FOR THE TREATMENT OF ALLERGIC RHINITIS COMPRISING PGD2 ANTAGONIST AND HISTAMINE ANTAGONIST” (Shionogi & Co., Ltd., priority 2011, published 2014)
Read-outs that look alike come from different tables or passages of the source. Marks after values point to notes of the source that are not given here.

What was measured:
[1] = test system: guinea pig rhinitis model; assay: Evaluation Test 1, guinea pig rhinitis model (OVA), nasal airway resistance, Formula (I) + fexofenadine hydrochloride; type: in vivo; conditions: single, 20 minutes after OVA challenge
Method: Guinea pig rhinitis models were generated by causing rhinitis-inflammation in 5 to 6 week-old male Harley guinea pigs in the following manner. Concretely, on day 0, the guinea pigs were intraperitoneally administered with cyclophosphamide diluted with physiological saline at 30 mg/kg. Two days later (on day 2), a mixed solution of aluminum hydroxide gel (10 mg), ovalbumin (OVA) (1 mg) and physiological saline was intraperitoneally administered to establish active sensitization. Thereafter, on day 9, a 1% OVA solution dissolved in physiological saline was intranasally challenged by 20 μL each to both the nostrils. Further, on day 16, a 2% OVA solution dissolved in physiological saline was intranasally challenged by 10 μL each to both the nostrils, thereby generating guinea pig rhinitis models that caused rhinitis-inflammation. Here, a control group that serves as a control was intranasally challenged by physiological saline in place of intranasally challenging by the OVA solution.
Specifically, prepared were the following: […]
Next, on day 23, a test substance listed in Table 7 was orally administered using a 0.5% methylcellulose (MC) solution as a medium, and one hour thereafter a 2% OVA solution dissolved in physiological saline was intranasally challenged by 10 μL each to both the nostrils (Group 1 was intranasally challenged by physiological saline in place of intranasal challenge by the OVA solution), and the nasal airway resistance was evaluated and analyzed. […] Here, nasal airway resistance (nRaw) is an average of specific airway resistance (sRaw) of 200 times or more breathing, and the analyzed values used in the comparisons of pharmacological efficacy are expressed as a percent change based on the nasal airway resistance measured before the intranasal challenge (100%) (IAR: immediately airway response). In addition, the between-group comparison was carried out according to one-sided t test, and the suppression percentage to Group 2 (Vehicle Group) was calculated by the following formula: […]

[2] = test system: guinea pig rhinitis model induced with PGD2 and histamine; assay: Evaluation Test 3, guinea pig rhinitis model induced with PGD2 and histamine, nasal airway resistance; type: in vivo; conditions: oral, each agent at 10 mg/kg; about 10 minutes after PGD2 + histamine challenge
Excerpt: The pharmacological efficacy evaluation was made using 9 to 12 week-old male Harley guinea pigs in the following manner. Specifically, the guinea pigs were divided into the following groups: Group 1: Control Group (a group administered with a medium alone to a guinea pig); […] [table]

[3] = test system: patients with seasonal allergic rhinitis; assay: Evaluation test on pharmacological efficacy on patients with seasonal allergic rhinitis (daytime nasal symptom scores)
Method: Each of the groups was asked to take each preparation in accordance with the following medication schedule. Thereafter, each of the patients was daily evaluated on daytime nasal symptoms, e.g. sneezing attacks, nasal discharge, nasal congestion, and nasal itching, in accordance with the following evaluation criteria. The results were analyzed. The lower the nasal symptom scores, more alleviated the nasal symptoms.
The medication was scheduled for a total of about 6 to 18 weeks, including a screening period of from 0 days to 12 weeks, a placebo introducing period of from 4 to 7 days, an ingestion period for each preparation of 4 weeks, and a post-observation period of 1 week.
Here, the evaluation criteria for sneezing, nasal discharge, and nasal congestion were conducted in 5-ranks from scores 0 to 4, and the evaluation criterion for nasal itching was conducted in 4-ranks of scores 0 to 3.
As to the nasal symptoms evaluated by each patient, average scores/day at time points 1, 2, 3, and 4 weeks after the administration, and the week just before the administration (for example, at a time point of 2 weeks after the administration refers to a one-week period from one week after the administration to the second week) were calculated, and changes since the start of the test were calculated and used in analysis. Here, in the between-group comparison distribution of the background factors, Fisher's exact test was used for nominal scale data, and Kruskal-Wallis test was used for continuous data or ordinal scale data. In both tests, the significance levels were set at 0.15 on both sides. In the analyses of nasal symptom items, the between-group comparison according to covariance analysis of an average change after two weeks from the administration, the between-group comparison according to covariance analysis of a change on a weekly basis, the between-group comparison of a change on a weekly basis using a linear model, and the between-group comparison according to chi-square test of improvement rate on a weekly basis were conducted. In all the comparisons, the significance level was set at 0.05 on both sides. In addition, as to the changes of nasal symptoms on a weekly basis, the between-group comparison according to covariance analysis for changes on a weekly basis using a linear model was conducted. Further, the between-group comparison according to chi-square test of improvement rate of each of the daytime nasal symptoms on a weekly basis was conducted. In the covariance analysis for a change on a weekly basis, in cases where data each week were not measured, the data were supplemented according to Last Observation Carried Forward (LOCF) method.

[4] = test system: seasonal allergic rhinitis patients; conditions: after two weeks, cited from earlier work; for change in nasal symptom scores per symptom from the placebo group: sneezing, nasal discharge, nasal congestion, nasal itching
[5] = test system: seasonal allergic rhinitis patients; conditions: after two weeks; cited from earlier work
[6] = test system: seasonal allergic rhinitis patients; conditions: after two weeks; montelukast 10 mg, loratadine 10 mg, combination 10 mg each; cited from earlier work
[7] = test system: seasonal allergic rhinitis patients; assay: Clinical test (Ph 2, protocol 077) on seasonal allergic rhinitis, Non-Patent Publication 1; type: in vivo, human; conditions: beclomethasone versus loratadine, change per symptom from placebo
Excerpt: For example, Journal of Asthma, 46, 878-883, 2009 (Non-Patent Publication 1) describes clinical test results (Ph 2, protocol 077) on seasonal allergic rhinitis for a patient group administered with montelukast as an LT receptor antagonist, a patient group administered with loratadine as a histamine H1 receptor antagonist, and a patient group administered with beclomethasone as an intranasal steroid (see Table 3 in the publication). Here, the nasal symptoms, i.e. sneezing, nasal discharge, nasal congestion, and nasal itching, after two weeks since the start of the oral administration are scored to be evaluated.
Furthermore, Table 3 of Non-Patent Publication 1 describes clinical test results on seasonal allergic rhinitis for an intranasal steroid agent beclomethasone and a histamine H1 receptor antagonist loratadine. According to the publication, it can be seen that a change in scores of nasal symptoms, i.e. sneezing, nasal discharge, nasal congestion, and nasal itching, after two weeks since the start of the oral administration, per symptom from the placebo group is such that the change in a loratadine group is 0.31, i.e. a difference between 0.53 and 0.22, and that the change in a beclomethasone group is 0.48, i.e. a difference between 0.70 and 0.22. In other words, it can be seen that the intranasal steroid agent was 1.55 times effective of the histamine H1 receptor antagonist. […]

[8] = after two weeks from administration

CC(C)Oc1ccc(S(=O)(=O)N2CCN(c3ccc(-c4ncco4)c(OCC(=O)O)c3)CC2)cc1 [Formula (I), [2-(oxazol-2-yl)-5-(4-{4-[(propan-2-yl)oxy]phenylsulfonyl}piperazin-1-yl)phenoxy]acetic acid]
suppression percentage of nasal airway resistance increase ([1]; Group 3, Formula (I) 1 mg/kg oral): 21% | suppression percentage of nasal airway resistance increase ([1]; Group 4, Formula (I) 10 mg/kg oral): 47% | suppression percentage of nasal airway resistance increase [2]: 32% | Change in Nasal Congestion Scores, Difference with Cetirizine Hydrochloride Group [3, 8]: −0.03 | Change in Nasal Congestion Scores, Difference with Placebo Group [3, 8]: −0.16* | Change in Nasal Discharge Scores, Difference with Cetirizine Hydrochloride Group [3, 8]: 0.13 | Change in Nasal Discharge Scores, Difference with Placebo Group [3, 8]: −0.19** | Change in Nasal Itching Scores, Difference with Cetirizine Hydrochloride Group [3, 8]: 0.21** | Change in Nasal Itching Scores, Difference with Placebo Group [3, 8]: −0.06 | Change in Sneezing Scores, Difference with Cetirizine Hydrochloride Group [3, 8]: 0.23** | Change in Sneezing Scores, Difference with Placebo Group [3, 8]: −0.11 | Change in Total of Three Nasal Symptom Scores, Difference with Cetirizine Hydrochloride Group [3, 8]: 0.28 | Change in Total of Three Nasal Symptom Scores, Difference with Placebo Group [3, 8]: −0.45*

CC(C)(C(=O)O)c1ccc(C(O)CCCN2CCC(C(O)(c3ccccc3)c3ccccc3)CC2)cc1.Cl (racemic) [fexofenadine hydrochloride, (±)-2-{4-[1-hydroxy-4-[4-(hydroxydiphenylmethyl)piperidino]butyl]phenyl}-2-methylpropanoic acid monohydrochloride]
suppression percentage of nasal airway resistance increase ([1]; Group 5, fexofenadine hydrochloride 20 mg/kg oral): 15%

CCOC(=O)N1CCC(=C2c3ccc(Cl)cc3CCc3cccnc32)CC1 [loratadine, ethyl 4-(8-chloro-5,6-dihydro-11H-benzo[5,6]cyclohepta[1,2-b]pyridin-11-ylidene)-1-piperidinecarboxylate]
change in nasal symptom scores per symptom since the start of the administration [4]: 0.53 | change in nasal symptom scores per symptom from the placebo group [4]: 0.31 | change per symptom of the nasal symptom scores since the start of the administration [5]: 0.40 | change per symptom of the nasal symptom scores, based on the placebo group [5]: 0.09 | change per symptom of the nasal symptom scores since the start of the administration [6]: 0.34 | change per symptom of the nasal symptom scores, based on the placebo group [6]: 0.09

C[C@H]1C[C@H]2[C@@H]3CCC4=CC(=O)C=C[C@]4(C)[C@@]3(Cl)[C@@H](O)C[C@]2(C)[C@@]1(O)C(=O)CO [beclomethasone]
change in nasal symptom scores per symptom since the start of the administration [4]: 0.70 | change in nasal symptom scores per symptom from the placebo group [4]: 0.48 | effect of intranasal steroid agent relative to histamine H1 receptor antagonist [7]: 1.55 times

Cl.Cl.O=C(O)COCCN1CCN(C(c2ccccc2)c2ccc(Cl)cc2)CC1 (racemic) [Cetirizine Hydrochloride, 2-(2-{4-[(RS)-(4-chlorophenyl)phenylmethyl]piperazin-1-yl}ethoxy)acetic acid dihydrochloride]
suppression percentage of nasal airway resistance increase [2]: 20% | Change in Nasal Congestion Scores, Difference with Placebo Group [3, 8]: −0.13 | Change in Nasal Discharge Scores, Difference with Placebo Group [3, 8]: −0.31** | Change in Nasal Itching Scores, Difference with Placebo Group [3, 8]: −0.28** | Change in Sneezing Scores, Difference with Placebo Group [3, 8]: −0.34*** | Change in Total of Three Nasal Symptom Scores, Difference with Placebo Group ([3]; after two weeks from administration, dihydrochloride): −0.73** | Change in Total of Three Nasal Symptom Scores, Difference with Placebo Group ([3]; after two weeks from administration, listed as cetirizine, dihydrochloride): 0.73 | change per symptom (total of three nasal symptom scores, from the placebo group) ([3]; after two weeks, worked out from Table 2): 0.24
